Assays:
[1] = molecular target: T1, PD1/PD-L1 (Homo sapiens, UniProt Q9NZQ7); assay: NFAT activity test (TCR Activitor/PD-L1 CHO cells with PD-1/NFAT Reporter-Jurkat cells); type: cell-based; parameters: host or cells: TCR Activitor/PD-L1 CHO cells; PD-1/NFAT Reporter-Jurkat cells; conditions: TCR Activitor/PD-L1 CHO cells + PD-1/NFAT Reporter-Jurkat cells, 5 hours, luciferase
In short: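 TCR activator/PD-L1 CHO cells were pretreated 30 min at 37 °C with compound (20 μM to 0.25 nM, 5-fold steps, 2% DMSO). PD-1/NFAT reporter Jurkat cells were then added for 5 h at 37 °C. NFAT-driven luciferase read by Bright-Glo luminescence, normalised to Min/Max, IC50 from 4-parameter fit.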
Target sequence in this assay (Q9NZQ7 19-290): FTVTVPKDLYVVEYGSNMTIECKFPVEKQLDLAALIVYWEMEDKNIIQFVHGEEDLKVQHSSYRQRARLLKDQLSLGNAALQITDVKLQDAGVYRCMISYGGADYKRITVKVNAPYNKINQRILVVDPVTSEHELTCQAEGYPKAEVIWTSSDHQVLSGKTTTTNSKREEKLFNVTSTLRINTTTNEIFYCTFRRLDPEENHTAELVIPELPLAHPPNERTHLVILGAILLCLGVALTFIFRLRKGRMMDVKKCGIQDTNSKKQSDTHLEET

[2] = molecular target: T1, PD1/PD-L1; assay: PD-1/PD-L1 homogeneous time-resolved fluorescence (HTRF) binding experiment; parameters: purchased BPS Biosciences; conditions: HTRF (TR-FRET), PD-L1-biotin, PD1-Eu
Description: Experimental Example 1: PD-1/PD-L1 Homogenouse Time-Resolved Fluorescence (HTRF) Binding Experiment
When the PD-1 molecule as the donor is very close to the PD-L1 molecule as the acceptor, the donor molecule will transfer the energy to the receptor molecule, which in turn causes the receptor molecule to emit fluorescence. The ability of small molecules to prevent the binding of PD-L1 to PD-1 can be tested by detecting the intensity of fluorescence. A homogeneous time-resolved fluorescence (HTRF) binding experiment is used to detect the ability of the compounds of the present disclosure to inhibit the binding of PD-1/PD-L1.
PD1/PD-L1 TR-FRET detection kit was purchased from BPS Biosciences. Nivo multi-label analyzer (PerkinElmer).
PD1-Eu, Dye-labeled acceptor, PD-L1-biotin and compounds to be tested were diluted with the buffer in the kit. The compounds to be tested were subjected to 5-fold dilution to eight concentration gradients with a row gun. That is, from 40 μM to 0.5 nM, the DMSO concentration was 4%, and a double-well experiment was set up. 5 μL of inhibitor with each concentration gradient were added to the microwell plate, and 5 μL buffer containing 4% DMSO and 5 μL PD-L1-biotin (PD-L1-biotin) (60 nM) were added into well with the maximum signal (Max) and the well with the minimum signal (Min), only 5 μL of buffer was added to the well with the minimum signal (Min), and the incubation was conducted at 25° C. for 20 minutes. After the incubation was completed, 5 μL of diluted PD1-Eu (10 nM) and […] were added to each well. The reaction system was placed at 25° C. for 90 minutes. The TR-FRET signal was read by a multi-label analyzer after the reaction was completed.
Using the equation (sample−Min)/(Max−Min)×100% to convert the raw data into inhibition rate, and the IC50 value can be obtained by curve fitting with four parameters (obtained from log(inhibitor) vs. response—Variable slope mode in GraphPad Prism). Table 1 provides the inhibitory activity of the compounds of the examples of the present disclosure on PD1/PD-L1 binding
Target sequence in this assay (Q9NZQ7 19-239 limits assumed): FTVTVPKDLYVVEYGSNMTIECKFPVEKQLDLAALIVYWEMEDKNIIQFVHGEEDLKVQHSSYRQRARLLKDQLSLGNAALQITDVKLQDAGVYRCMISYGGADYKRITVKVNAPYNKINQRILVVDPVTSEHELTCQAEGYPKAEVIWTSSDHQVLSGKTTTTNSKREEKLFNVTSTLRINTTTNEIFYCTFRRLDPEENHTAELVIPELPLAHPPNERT

[3] = molecular target: T2, PD-L1 in MDA-MR-231 cells (Homo sapiens, UniProt Q9NZQ7); assay: Effect on expression level of PD-L1 in MDA-MR-231 cells (FACS); type: cell-based; conditions: 24 hours incubation, FACS detection of cell surface PD-L1
T2 construct: endogenous in cells; host or cells: MDA-MB-231
T2 sequence (Q9NZQ7 19-290): as the sequence (Q9NZQ7 19-290) above
In short: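 MDA-MB-231 cells (1×10^5/well) were incubated 24 h at 37 °C with 5-fold serially diluted compounds. Cells were detached with 10 mM EDTA, then stained with anti-human PD-L1 and LIVE/DEAD dye (4 °C, 30 min) and fixed. Surface PD-L1 was measured by flow cytometry.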

SMILES: Cc1c(NC(=O)c2ccc(CNCCO)cn2)cccc1-c1cccc(NC(=O)c2cc(NCCO)c3c(n2)CN(CCO)CC3)c1Cl [Compound 18]
- Maximum effect (induction fold) [1]: 3.77 induction fold
- IC50 ([1]; read-out: IC50, inhibitory activity on PD1/PD-L1 binding (NFAT activity test)): 79.7 nM
- IC50 [2]: 3.16 nM
- IC50 [3]: 70.6 nM
